Results: publication PMC9760430, “A stapled chromogranin A-derived peptide homes in on tumors that express αvβ6 or αvβ8 integrins” (International Journal of Biological Sciences, 2023)
Like-named read-outs stand apart in the source and are kept apart here. Bridge positions count the residues as written; N and C are the ends. Square brackets hold non-standard residues; d marks the D form. Ends that are not written are not given here. Peptide text beside a SMILES is read from it. * marks the point of attachment. X2 = O=C(O)CN1CCN(CC(=O)O)CCN(CC(=O)NCCN2C(=O)CC(*)C2=O)CC1; Lys(N3) = [N-]=[N+]=NCCCC[C@H](N)C(=O)O; Pra = C#CC[C@H](N)C(=O)O

Legend:
Human αvβ6 [1] = target: T1, Human αvβ6 (Homo sapiens, UniProt P06756+P18564); test: competitive integrin binding assay (isoDGR-peroxidase probe), αvβ6-coated plates; conditions: competition with isoDGR-peroxidase on αvβ6-coated plates; mean ± SE of n independent experiments (n in the column beside)
T1 construct: purchased Bio-Techne
Method: Peptides were prepared by chemical synthesis; their identity and purity were checked by mass spectrometry (MS) and reverse-phase HPLC analysis. The affinity of peptides for αvβ6-coated plates was determined by competitive binding assay using an isoDGR peptide (an RGD mimetic) labeled with peroxidase as a probe for the integrin-binding site. Cell adhesion assays were carried out as described previously.
Figure S2. Competitive binding of isoDGR-peroxidase conjugate with peptide 5, 5a and 2a to αvβ6-coated microtiter plates.
The competitive binding assay was performed as previously described, using an isoDGR peptide (an RGD mimetic) labeled with peroxidase (isoDGR-HRP) as a probe for the integrin-binding site. A representative experiment (mean ± SE of 3-4 technical replicates) is shown. The resulting Ki values are shown (mean ± SE of n=3-7 independent experiments, see also Table […]
(1 picture or pasted object on this page, not shown here)
Figure S10. Biochemical characterization of 5a- and 2a-NOTA conjugates. […]
C) Competitive binding of isoDGR-HRP to αvβ6-coated microtiter plates with peptides and peptide-NOTA conjugates, as measured by competitive ELISA. […]
D) Stability of 5a-NOTA after labeling with 18F, as determined by RP-HPLC analysis using an […]

Human αvβ6 [2] = target: T1, Human αvβ6; design: method as in PMID 31755501; conditions: competition with isoDGR-peroxidase on αvβ6-coated plates; mean ± SE of n independent experiments; ref [25]; read-out: Ki (competitive integrin binding assay) Human αvβ6; cited from earlier work
Human αvβ8 = target: T2, Human αvβ8 (Homo sapiens, UniProt P06756+P26012); design: method as in PMID 31755501; conditions: competition with isoDGR-peroxidase; mean ± SE of n independent experiments; ref [25]; read-out: Ki (competitive integrin binding assay) Human αvβ8; cited from earlier work
T2 construct: purchased Bio-Techne
T2 sequence (P06756 31-992 limits assumed): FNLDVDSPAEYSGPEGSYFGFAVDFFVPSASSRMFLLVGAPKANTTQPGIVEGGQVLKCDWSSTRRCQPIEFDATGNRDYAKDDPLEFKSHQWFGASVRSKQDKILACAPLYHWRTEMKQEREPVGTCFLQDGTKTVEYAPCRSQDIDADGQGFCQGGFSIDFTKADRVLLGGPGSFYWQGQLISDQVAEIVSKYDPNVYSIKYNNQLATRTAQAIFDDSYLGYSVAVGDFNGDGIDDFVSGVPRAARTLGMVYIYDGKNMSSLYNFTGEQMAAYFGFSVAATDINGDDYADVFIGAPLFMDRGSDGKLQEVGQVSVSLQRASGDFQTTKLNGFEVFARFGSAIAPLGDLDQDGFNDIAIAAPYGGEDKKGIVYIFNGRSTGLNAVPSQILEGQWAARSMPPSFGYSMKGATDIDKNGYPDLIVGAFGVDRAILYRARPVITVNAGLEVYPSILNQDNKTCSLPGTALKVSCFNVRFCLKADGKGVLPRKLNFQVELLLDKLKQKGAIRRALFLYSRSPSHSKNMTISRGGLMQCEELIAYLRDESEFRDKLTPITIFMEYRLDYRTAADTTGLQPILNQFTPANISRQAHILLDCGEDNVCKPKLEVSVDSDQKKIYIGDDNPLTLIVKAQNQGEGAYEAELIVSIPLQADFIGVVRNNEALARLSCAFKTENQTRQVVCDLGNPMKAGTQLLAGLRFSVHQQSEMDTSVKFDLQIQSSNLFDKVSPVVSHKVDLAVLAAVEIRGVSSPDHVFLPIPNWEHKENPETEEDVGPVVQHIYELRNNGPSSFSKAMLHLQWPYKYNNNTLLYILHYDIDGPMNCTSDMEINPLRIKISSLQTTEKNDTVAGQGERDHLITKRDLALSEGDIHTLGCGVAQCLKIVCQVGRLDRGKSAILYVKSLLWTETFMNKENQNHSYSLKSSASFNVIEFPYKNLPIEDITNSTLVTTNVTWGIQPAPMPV
T2 sequence (P26012 43-684 limits assumed): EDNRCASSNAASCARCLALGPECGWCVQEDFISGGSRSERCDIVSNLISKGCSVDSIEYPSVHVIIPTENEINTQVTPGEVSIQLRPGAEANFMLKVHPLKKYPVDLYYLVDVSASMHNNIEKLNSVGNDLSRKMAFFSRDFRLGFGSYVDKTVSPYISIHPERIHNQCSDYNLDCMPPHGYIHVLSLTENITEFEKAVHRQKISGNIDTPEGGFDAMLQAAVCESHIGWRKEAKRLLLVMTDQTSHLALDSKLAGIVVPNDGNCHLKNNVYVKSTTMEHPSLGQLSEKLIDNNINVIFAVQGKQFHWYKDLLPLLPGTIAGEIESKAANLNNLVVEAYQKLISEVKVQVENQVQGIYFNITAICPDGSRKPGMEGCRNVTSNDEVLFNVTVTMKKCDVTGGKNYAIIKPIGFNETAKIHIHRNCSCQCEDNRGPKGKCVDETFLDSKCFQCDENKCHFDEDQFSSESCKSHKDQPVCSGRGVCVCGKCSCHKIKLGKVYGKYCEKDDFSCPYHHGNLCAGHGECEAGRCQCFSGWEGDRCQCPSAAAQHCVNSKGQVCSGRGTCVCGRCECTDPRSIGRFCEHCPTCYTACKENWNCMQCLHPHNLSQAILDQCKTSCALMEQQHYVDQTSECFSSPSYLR

T1 sequence (P06756 31-992 limits assumed): as the sequence (P06756 31-992 limits assumed) above
T1 sequence (P18564 22-707 limits assumed): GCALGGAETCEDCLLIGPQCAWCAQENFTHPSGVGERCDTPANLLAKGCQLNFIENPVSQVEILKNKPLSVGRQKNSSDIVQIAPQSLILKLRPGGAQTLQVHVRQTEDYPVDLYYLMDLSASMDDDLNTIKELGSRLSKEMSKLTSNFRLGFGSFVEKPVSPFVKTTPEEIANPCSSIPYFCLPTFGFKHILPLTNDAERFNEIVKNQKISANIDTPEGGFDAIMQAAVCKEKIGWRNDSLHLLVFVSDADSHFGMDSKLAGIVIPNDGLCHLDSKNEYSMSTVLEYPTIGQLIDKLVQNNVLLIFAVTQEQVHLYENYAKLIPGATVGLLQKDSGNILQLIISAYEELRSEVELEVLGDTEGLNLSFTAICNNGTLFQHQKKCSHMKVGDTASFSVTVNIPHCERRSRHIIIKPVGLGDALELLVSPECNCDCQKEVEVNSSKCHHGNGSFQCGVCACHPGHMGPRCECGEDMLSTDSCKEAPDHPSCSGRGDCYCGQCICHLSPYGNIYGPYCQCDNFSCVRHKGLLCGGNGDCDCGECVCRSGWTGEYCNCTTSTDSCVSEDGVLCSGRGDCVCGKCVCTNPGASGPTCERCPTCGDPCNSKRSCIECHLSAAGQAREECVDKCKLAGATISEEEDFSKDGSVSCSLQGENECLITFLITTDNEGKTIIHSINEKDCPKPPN

| Compound | Ki (Human αvβ6 [1]) [nM] | Ki (Human αvβ6 [2]) [nM] | Ki (Human αvβ8) [nM] |
| --- | --- | --- | --- |
| CC[C@H](C)[C@H](NC(=O)[C@H](CCCNC(=N)N)NC(=O)[C@H](CCC(=O)O)NC(=O)[C@H](CCC(=O)O)NC(=O)CNC(=O)[C@H](CCCNC(=N)N)NC(=O)[C@H](CC(C)C)NC(=O)[C@@H](NC(=O)[C@H](CCC(=O)O)NC(=O)[C@H](Cc1ccccc1)NC(=O)[C@@H](N)CSC1CC(=O)N(CCNC(=O)CN2CCN(CC(=O)O)CCN(CC(=O)O)CC2)C1=O)[C@@H](C)O)C(=O)N[C@@H](CC(C)C)C(=O)N[C@@H](CO)C(=O)N[C@H](C(=O)N[C@@H](CC(C)C)C(=O)N[C@@H](CCCNC(=N)N)C(=O)N[C@@H](Cc1c[nH]cn1)C(=O)N[C@@H](CCC(N)=O)C(=O)N[C@@H](CC(N)=O)C(=O)N[C@@H](CC(C)C)C(=O)N[C@@H](CC(C)C)C(=O)N[C@@H](CCCCN)C(=O)N[C@@H](CCC(=O)O)C(=O)N[C@@H](CC(C)C)C(=O)N[C@@H](CCC(N)=O)C(=O)N[C@@H](CC(=O)O)C(N)=O)[C@@H](C)CC (some centres unmarked) [2a-NOTA] (H-C(X2)FETLRGEERILSILRHQNLLKELQD-NH2) | > 1000 |  |  |
| CIRLDLELINFQSDLQHELLKTRLRG [5a-Scr] | > 200 |  |  |
| ac-FETLRGDLRILSILRX1QNLX2KELQD-CONH2 (sidechain bridge or staple) (Ac-FETLRGDLRILSILR[Pra]QNL[Lys(N3)]KELQD-NH2; triazole 16-20; not fully specified) [compound 5, chromogranin A-derived peptide with RGDL motif and triazole-stapled alpha-helix, previously developed by the authors] |  | 0.6 ± 0.1 |  |
| CFETLRGEERILSILRHQNLLKELQD-NH2 [2a] |  | > 50000 | > 50000 |
